Read-outs that look alike come from different tables or passages of the source.
How the values were obtained:
[1] = test system: liver fibrosis in BALB/c.Mdr2-/- mice; experiment: Mouse Mdr2 knockout model of biliary fibrosis; format: in vivo; details: a model of liver fibrosis
Protocol: Liver disease develops in the BALB/c.Mdr2−/− mouse model with bridging fibrosis/early cirrhosis between 8 and 12 weeks of age (Ikenaga et al. 2015 Am J Pathology, 185: 325-334). […] At the end of the study, mice were anesthetized with isoflurane (1.5% v/v) via precise vaporizer. After laparotomy, portal pressure was measured directly by inserting a high-fidelity pressure catheter into the portal vein and measuring pressure signals for 5 minutes. Serum was collected for analysis of liver (ALT, AST, ALP, and bilirubin) and kidney (creatinine) biochemistries. Part of the liver was fixed in 10% neutral buffered formalin for histopathological analysis of inflammation, necrosis and fibrosis by H&E staining and picrosirius red staining. Collagen area fraction was measured from picrosirius red stained images using an algorithm that separates the red stained collagen from non-specific staining through color subtraction and thresholding of the processed image. Sections were analyzed in random order using the same threshold value for each set. Data were deconvolved after analysis to identify group assignment. Collagen content was determined from a portion of the liver tissue using hydroxyproline analysis.

human LOXL2 = human LOXL2 (Homo sapiens (Human), UniProt Q9Y4K0); experiment: Human LOXL2 CCM assay (Amplex Red amine oxidase activity); format: biochemical
Protocol: Human LOXL2/CHO and human LOX/HEK stable cell lines were cultured under normal growth conditions in 15 cm tissue culture plates until cells were ˜80% confluent. Cells were then washed with PBS before the addition of 25-30 mL serum-free media (Phenol red-free DMEM/F12 mix w/glutamax containing pen/strep, 10-100 μM CuCl2±0.1% BSA). Cells were incubated at 37° C., 5% CO2 in serum-free media for 40-48 hours before the conditioned media was removed and centrifuged at 2000 rpm for 5 min at 4° C. to pellet cells/debris. The media was concentrated 10-20× using 10-30 MWCO centriprep columns according to the manufacturer's instructions (EMD Millipore, Billerica, Mass.) before aliquoting and storing at −80° C.
LOXL2 amine oxidase activity was evaluated by measuring Amplex Red fluorescence using 10-20× concentrated conditioned media (non BSA-containing) from CHO cells stably expressing human LOXL2. To assay for amine oxidase activity, 10 μL of the concentrated conditioned media was incubated with 2 μL of test compound in DMSO and 73 μL Assay Buffer (50 mM Borate Buffer, pH8) for 2 h at 37° C. After the 2 h incubation, 5 μL of 10 mM 1,5-Diaminopentane (DAP) diluted in Assay Buffer and 10 μL of Amplex Red Mix (8.5 μL Assay Buffer+0.5 μL of 10 mM Amplex Red+1 μL of 500 U/ml Horseradish Peroxidase) were added and the plate mixed and immediately placed on the FlexStation for fluorescence measurements. Fluorescence was read in kinetic mode every 2 min for 0.5-1 hour at excitation=544 and emission=590. The amine oxidase activity was calculated from the slope of the linear portion of the curve. Wells containing vehicle (DMSO) represented maximum activity and were set to 0% inhibition and wells containing 100 μM βAPN (3-aminopropionitrile) represented no activity and were set to 100% inhibition.

in vivo = details: dog
Protocol: (§1) Blood samples were taken from each dog (approximately 1 mL total blood per time point) at pre-dose, 5 or 15 min and then at various time points up to 24 hours post-dose. Samples were collected on wet ice in tubes containing potassium EDTA (w/v in normal saline; BD Biosciences, Franklin Lakes, N.J. Plasma samples, prepared by centrifugation of whole blood, were stored frozen (−80° C.) prior to analysis. All other reagents were of analytical grade.
(§2) Analysis was performed on an LC-MS/MS systems comprised of a Sciex API-4000Qt tandem mass spectrometer (AB Sciex, Foster City, Calif.) interfaced to an HPLC system consisting of a single Agilent 1200 Series Quaternary system pump (Santa Clara, Calif.) and a LEAP PAL auto-injector (Greenville, S.C.). Analyses were performed using an Agilent Zorbax SB-C8 column (2.1×50 mm; 5 μm) for chromatographic separations at room temperature.

[2] = Pharmacokinetic study of Compound 1 or 2 in rat; format: in vivo; details: male
Protocol: as §1, with “each rat” for “each dog”, “(approximately 0.3” for “(approximately 1”
as §2

MDA-MB-435-GFP cells = experiment: Mouse orthotopic breast cancer model; format: in vivo; details: oral 60 mg/kg/day, at 4 weeks, nude mice
Protocol: Tumor stocks were made by subcutaneously (s.c.) injecting MDA-MB-435-GFP cells at a concentration of 5×10^6 cells/100 μL into the flank of nude mice. When the s.c. tumors reach 50-100 mm^3, tumors were harvested and cut into 1 mm^3 fragments. Two tumor fragments were transplanted into the mammary fat pad of each mouse. […] Docetaxel was administered at 10 mg/kg intravenously once a week for 4 weeks as a positive control. Tumor size was calculated from a measurement of perpendicular minor dimension (W) and major dimension (L) using the formula (W2×L)×½ with W and L measured using a digital caliper. Mice were sacrificed after 4 weeks.

[3] = test system: bleomycin-induced lung fibrosis; experiment: Mouse oropharyngeal bleomycin model of lung fibrosis; format: in vivo
Protocol: Lung fibrosis was induced in C57Bl/6 male mice by administering bleomycin (0.1-4 U/kg) via oropharyngeal instillation. Mice were either pretreated with vehicle or test compound orally, intraperitoneally, intravenously or subcutaneously either prophylactically (1 day to 1 hour before bleomycin instillation) or therapeutically (7-14 days post bleomycin instillation). The route and frequency of dosing were based on previously determined pharmacokinetic properties for the LOXL2 inhibitor in mouse. After bleomycin instillation, animals were monitored daily for weight loss and clinical signs for 14-28 days prior to sacrifice. Animals were euthanized at study termination and weighed. […] For histological examination, lung slices were stained with Masson's trichrome or picrosirius red to measure fibrillar collagen as an indicator of fibrosis and an Ashcroft score of lung fibrosis and inflammatory damage determined. […] After the acid hydrolysis, 25-100 μL of the supernatant is dried down, resuspended in 25 μL water and the hydroxyproline content determined by the addition of 0.5 mL Chloramine T solution (140 mg Chloramine T in 6.5 ml ddH2O+1 ml n-propanol+2.5 mL 1M sodium acetate) and incubation at room temperature for 20 min. […]
Fibrotic status was assessed histologically on Day 21 using Ashcroft score as a primary measure of lung fibrosis. […]

[4] = test system: collagen induced arthritis (CIA); details: in vivo CIA mouse model; cited from earlier work
[5] = PO, 0.5% MC, 30 mg/kg, fasted, AUC0-t PO/AUC0-t IV
[6] = plasma, iv, 2 mg/kg, saline, fed

Chain of human LOXL2 (Q9Y4K0 26-774): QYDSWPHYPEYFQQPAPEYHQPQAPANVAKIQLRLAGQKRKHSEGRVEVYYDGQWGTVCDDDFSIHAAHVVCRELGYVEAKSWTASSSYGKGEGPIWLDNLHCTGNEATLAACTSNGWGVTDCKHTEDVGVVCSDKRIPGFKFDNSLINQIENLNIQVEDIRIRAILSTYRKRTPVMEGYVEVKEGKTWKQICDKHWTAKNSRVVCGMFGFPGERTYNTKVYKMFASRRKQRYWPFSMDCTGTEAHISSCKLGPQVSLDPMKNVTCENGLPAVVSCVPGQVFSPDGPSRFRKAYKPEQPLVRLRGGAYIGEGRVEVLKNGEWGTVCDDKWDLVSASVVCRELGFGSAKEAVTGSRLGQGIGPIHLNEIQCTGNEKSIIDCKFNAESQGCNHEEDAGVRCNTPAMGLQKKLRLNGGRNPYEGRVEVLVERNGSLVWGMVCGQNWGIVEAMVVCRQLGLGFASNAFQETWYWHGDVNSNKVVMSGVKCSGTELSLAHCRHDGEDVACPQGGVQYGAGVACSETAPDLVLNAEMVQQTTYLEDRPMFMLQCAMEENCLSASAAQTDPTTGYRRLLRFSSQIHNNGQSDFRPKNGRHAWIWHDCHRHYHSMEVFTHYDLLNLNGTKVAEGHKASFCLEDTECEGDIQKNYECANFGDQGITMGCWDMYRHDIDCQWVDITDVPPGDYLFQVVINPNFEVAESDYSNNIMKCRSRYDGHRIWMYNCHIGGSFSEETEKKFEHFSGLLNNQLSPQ

## NCc1cc(Oc2cccc(C(=O)N3C[C@@H](O)[C@H](F)C3)c2)nc(C(F)(F)F)c1 [Compound I, (R,R)-trans-(3-((4-(aminomethyl)-6-(trifluoromethyl)pyridin-2-yl)oxy)phenyl)(3-fluoro-4-hydroxypyrrolidin-1-yl)methanone]
[1]
  fibrosis as area fraction of Picrosirius red (collagen) positive staining: significantly reduced fibrosis
Human LOXL2; in vitro assays
  potency relative to the (S,S)-isomer: less than 2 fold

## NCc1cc(Oc2cccc(C(=O)N3C[C@@H](O)[C@H](F)C3)c2)nc(C(F)(F)F)c1 [Compound 2, (R,R)-trans-(3-((4-(aminomethyl)-6-(trifluoromethyl)pyridin-2-yl)oxy)phenyl)(3-fluoro-4-hydroxypyrrolidin-1-yl)methanone]
In vivo; po
  emesis (clinical observations): Emesis was prevalent in all dose groups
  tolerability by dosing form (clinical observations): oral capsule and potentially the tablet were better tolerated
In vivo; male, beagle, po, 300 mg/kg
  Cmax: 143 µg/mL
In vivo; male, beagle, po, 300 mg/kg, Tmax
  Tmax: 18 min
[2]; PO, 0.5% MC, 30 mg/kg, fasted
  AUC0-t hr/Dose: 0.07
  AUC(0-t hr): 2.0 µg·h/mL
  Cmax: 2600 ng/mL
  Tmax: 25.2 min
[2]; [5]
  F(%): 95%

## NCc1cc(Oc2cccc(C(=O)N3C[C@H](O)[C@@H](F)C3)c2)nc(C(F)(F)F)c1 (single isomer, unassigned) [Compound Ent-1]
Human LOXL2; human LOXL2 CCM (non BSA-containing), 2 h preincubation at 37° C., read-out: IC50
  IC50: < 300 nM

## NCc1cc(Oc2cccc(C(=O)N3C[C@@H](O)[C@H](F)C3)c2)nc(C(F)(F)F)c1 [Compound 1, (R,R)-trans-(3-((4-(aminomethyl)-6-(trifluoromethyl)pyridin-2-yl)oxy)phenyl)(3-fluoro-4-hydroxypyrrolidin-1-yl)methanone]
MDA-MB-435-GFP cells
  reduction in tumor volume: 35%
[3]; prophylactic, oral 60 mg/kg/day from Day -1, Day 14, reduced from mean 3.1
  Ashcroft score, mean value after treatment: 0.8
[3]; recovery study, oral 60 mg/kg starting Day 14 after bleomycin, lungs harvested Day 28
  normalization of Ashcroft score: 73%
In vivo; po
  emesis (clinical observations): Emesis was prevalent in all dose groups
In vivo; po, 100 mg/kg
  AUC0-t hr/Dose: 0.85
In vivo; male, beagle, 100 mg/kg, F(%)
  bioavailability: 283%
In vivo; male, beagle, po, 100 mg/kg
  Tmax: 78 min
  Cmax: 27 µg/mL
In vivo; male, beagle, po, 100 mg/kg, AUC(0-t hr)
  AUC(0-t): 85000 ng·h/mL
[2]; IV, saline, 2 mg/kg, fed
  AUC0-t hr/Dose: 0.07
[2]; PO, 0.5% MC, 30 mg/kg, fasted
  AUC0-t hr/Dose: 0.05
[2]; [5]
  F(%): 71%
[2]; PO, capsule, 15 mg/kg, fasted
  AUC0-t hr/Dose: 0.05
[2]; plasma, iv, 2 mg/kg, IV, saline, 2 mg/kg, fed, read-out: Cmax
  Cmax: 630 ng/mL
[2]; plasma, iv, 2 mg/kg, IV, saline, 2 mg/kg, fed, read-out: Tmax
  Tmax: 4.98 min
[2]; [6]
  AUC(0-t): 140 ng·h/mL
  bioavailability: 100%
[2]; plasma, oral, 15 mg/kg, capsule, fasted, AUC0-t PO/AUC0-t IV
  bioavailability: 69%
[2]; plasma, po, 15 mg/kg, PO, capsule, 15 mg/kg, fasted, read-out: Cmax
  Cmax: 1200 ng/mL
[2]; plasma, po, 15 mg/kg, PO, capsule, 15 mg/kg, fasted, read-out: Tmax
  Tmax: 36 min
[2]; plasma, po, 15 mg/kg, capsule, fasted
  AUC(0-t): 740 ng·h/mL
[2]; plasma, po, 30 mg/kg, 0.5% MC, fasted
  AUC(0-t): 1400 ng·h/mL
[2]; plasma, po, 30 mg/kg, PO, 0.5% MC, 30 mg/kg, fasted, read-out: Cmax
  Cmax: 1700 ng/mL
[2]; plasma, po, 30 mg/kg, PO, 0.5% MC, 30 mg/kg, fasted, read-out: Tmax
  Tmax: 15 min
Human LOXL2; CCM containing BSA, read-out: IC50, LOXL2 (CCM containing BSA)
  IC50: 116 nM

## N#CCCN [BAPN, β-aminopropionitrile]
[4]
  effect on collagen induced arthritis: ameliorated collagen induced arthritis (CIA)
